Results as given in ChEMBL document CHEMBL1136458, “MexAB-OprM specific efflux pump inhibitors in Pseudomonas aeruginosa. Part 2: achieving activity in vivo through the use of alternative scaffolds” (Bioorg Med Chem Lett, 2003).

Assays:
[1] = system: Mus musculus; assay: In vivo percent survival on day 7th after administration (15 mg/kg) in mice(Pseudomonas aeruginosa PAM1723); type: functional
[2] = system: Mus musculus; assay: In vivo percent survival on day 7th after administration (30 mg/kg) in mice(Pseudomonas aeruginosa PAM1723); type: functional
[3] = system: Mus musculus; assay: In vivo percent survival on day 7th after administration (7.5 mg/kg) in mice(Pseudomonas aeruginosa PAM1723); type: functional
[4] = system: Mus musculus; assay: In vivo number of survivors on day 0 after administration (15 mg/kg) in mice(Pseudomonas aeruginosa PAM1723); type: functional
[5] = system: Mus musculus; assay: In vivo number of survivors on day 0 after administration (30 mg/kg) in mice(Pseudomonas aeruginosa PAM1723); type: functional
[6] = system: Mus musculus; assay: In vivo number of survivors on day 0 after administration (7.5 mg/kg) in mice(Pseudomonas aeruginosa PAM1723); type: functional
[7] = system: Mus musculus; assay: In vivo number of survivors on day 7 after administration (15 mg/kg) in mice(Pseudomonas aeruginosa PAM1723); type: functional
[8] = system: Mus musculus; assay: In vivo number of survivors on day 7 after administration (7.5 mg/kg) in mice(Pseudomonas aeruginosa PAM1723); type: functional
[9] = system: Mus musculus; assay: In vivo number of survivors on day 7 after administration (30 mg/kg) in mice(Pseudomonas aeruginosa PAM1723); type: functional
[10] = system: Mus musculus; assay: In vivo number of survivors on day 4 after administration (7.5 mg/kg) in mice(Pseudomonas aeruginosa PAM1723); type: functional
[11] = system: Mus musculus; assay: In vivo number of survivors on day 4 after administration (15 mg/kg) in mice Pseudomonas aeruginosa PAM1723); type: functional
[12] = system: Mus musculus; assay: In vivo number of survivors on day 4 after administration (30 mg/kg) in mice(Pseudomonas aeruginosa PAM1723); type: functional
[13] = system: Mus musculus; assay: In vivo number of survivors on day 1 after administration (15 mg/kg) in mice(Pseudomonas aeruginosa PAM1723); type: functional
[14] = system: Mus musculus; assay: In vivo number of survivors on day 1 after administration (30 mg/kg) in mice(Pseudomonas aeruginosa PAM1723); type: functional
[15] = system: Mus musculus; assay: In vivo number of survivors on day 1 after administration (7.5 mg/kg) in mice(Pseudomonas aeruginosa PAM1723); type: functional
[16] = system: Mus musculus; assay: In vivo number of survivors on day 4 after administration at the dose of 50 mg/kg along LVFX (7.5 mg/kg) in mice (Pseudomonas aeruginosa PAM1723); type: functional
[17] = system: Mus musculus; assay: In vivo number of survivors on day 7 after administration at the dose of 50 mg/kg along LVFX (7.5 mg/kg) in mice (Pseudomonas aeruginosa PAM1723); type: functional
[18] = system: Mus musculus; assay: In vivo number of survivors on day 0 after administration at the dose of 50 mg/kg along LVFX (15 mg/kg) in mice (Pseudomonas aeruginosa PAM1723); type: functional
[19] = system: Mus musculus; assay: In vivo number of survivors on day 0 after administration at the dose of 50 mg/kg along LVFX (7.5 mg/kg) in mice (Pseudomonas aeruginosa PAM1723); type: functional
[20] = system: Mus musculus; assay: In vivo number of survivors on day 1after administration at the dose of 50 mg/kg along LVFX (7.5 mg/kg) in mice (Pseudomonas aeruginosa PAM1723); type: functional
[21] = system: Pseudomonas aeruginosa; assay: In vivo percent survival on day 7th after administration at the dose of 50 mg/kg along LVFX (15 mg/kg) in Pseudomonas aeruginosa PAM1723; type: functional
[22] = system: Pseudomonas aeruginosa; assay: In vivo percent survival on day 7th after administration at the dose of 50 mg/kg along LVFX (7.5 mg/kg) in Pseudomonas aeruginosa PAM1723; type: functional
[23] = system: Pseudomonas aeruginosa; assay: Minimum Potentiation Concentration of EPI required to achieve an 8-fold reduction in antibiotic MIC of AZT against MexAB-OprM pump system in Pseudomonas aeruginosa with 10% horse serum; type: functional
[24] = system: Pseudomonas aeruginosa; assay: Minimum Potentiation Concentration of EPI required to achieve an 8-fold reduction in antibiotic MIC of AZT against MexAB-OprM pump system in Pseudomonas aeruginosa without horse serum; type: functional
[25] = system: Pseudomonas aeruginosa; assay: Minimum Potentiation Concentration of EPI required to achieve an 8-fold reduction in antibiotic MIC of levofloxacin against MexABOprMover-expressing strain of Pseudomonas aeruginosa; type: functional
[26] = target: Albumin (Homo sapiens, UniProt P02768); assay: Protein binding affinity for human serum albumin was measured
Sequence of Albumin (P02768 whole entry): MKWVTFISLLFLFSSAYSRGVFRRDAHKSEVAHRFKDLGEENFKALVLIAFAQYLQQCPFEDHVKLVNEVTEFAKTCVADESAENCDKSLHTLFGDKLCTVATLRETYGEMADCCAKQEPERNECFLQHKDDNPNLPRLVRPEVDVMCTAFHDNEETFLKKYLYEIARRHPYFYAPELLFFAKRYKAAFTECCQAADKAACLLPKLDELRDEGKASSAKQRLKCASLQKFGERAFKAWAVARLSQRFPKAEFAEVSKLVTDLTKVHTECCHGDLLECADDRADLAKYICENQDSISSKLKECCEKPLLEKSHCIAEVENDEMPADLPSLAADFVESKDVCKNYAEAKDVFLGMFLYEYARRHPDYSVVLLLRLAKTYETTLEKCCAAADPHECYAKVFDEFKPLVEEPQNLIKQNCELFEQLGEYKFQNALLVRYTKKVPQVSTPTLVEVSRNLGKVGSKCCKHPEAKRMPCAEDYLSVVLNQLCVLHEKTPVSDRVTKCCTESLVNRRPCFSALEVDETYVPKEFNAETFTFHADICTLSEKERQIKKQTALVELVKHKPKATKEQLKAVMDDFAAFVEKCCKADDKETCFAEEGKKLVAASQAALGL

[27] = Ratio of potentiation of AZT without serum to with serum; type: functional
[28] = system: Mus musculus; assay: In vivo number of survivors on day 7 after administration at the dose of 50 mg/kg along LVFX(7.5 mg/kg) in mice (Pseudomonas aeruginosa PAM1723); type: functional
[29] = system: Mus musculus; assay: In vivo number of survivors on day 7 after administration at the dose of 50 mg/kg along LVFX (15 mg/kg) in mice (Pseudomonas aeruginosa PAM1723); type: functional
[30] = system: Mus musculus; assay: In vivo number of survivors on day 4 after administration at the dose of 50 mg/kg along LVFX (15 mg/kg) in mice (Pseudomonas aeruginosa PAM1723); type: functional
[31] = system: Mus musculus; assay: In vivo number of survivors on day 0 after administration at the dose of 50 mg/kg along LVFX (7.5 mg/kg) along with in mice (Pseudomonas aeruginosa PAM1723); type: functional
[32] = system: Mus musculus; assay: In vivo number of survivors on day 1after administration at the dose of 50 mg/kg along LVFX (15 mg/kg) in mice (Pseudomonas aeruginosa PAM1723); type: functional
[33] = system: Pseudomonas aeruginosa; assay: Minimum concentration ([…]) of inhibitor required to reduce (potentiate) the activity of antibacterial drug-LVFX for Pseudomonas aeruginosa PAM1723 by n-fold; type: functional

Structure (SMILES)	MPC8 [23] [µg/mL]	MPC8 [24]	MPC8 [25] [µg/mL]	Binding [26] [%]	Kd [26] [µM]	Ratio [27]	further results
C[C@H]1COc2c(N3CCN(C)CC3)c(F)cc3c(=O)c(C(=O)O)cn1c23.C[C@H]1COc2c(N3CCN(C)CC3)c(F)cc3c(=O)c(C(=O)O)cn1c23.O [LEVOFLOXACIN]							Survival [1]: 10%; Survival [2]: 70%; Survival [3]: 0%; No. of survivors [4]: 10; No. of survivors [5]: 10; No. of survivors [6]: 10; No. of survivors [7]: 1; No. of survivors [8]: 0; No. of survivors [9]: 7; No. of survivors [10]: 0; No. of survivors [11]: 1; No. of survivors [12]: 7; No. of survivors [13]: 1; No. of survivors [14]: 9; No. of survivors [15]: 0
CC(C)c1csc(COc2ccn3c(=O)c(-c4nnn[nH]4)cnc3c2)n1	5	5 µg/mL	10	88.4	66.4	1	No. of survivors [16]: 4; No. of survivors [17]: 4; No. of survivors [18]: 10; No. of survivors [19]: 10; No. of survivors [20]: 4; survival at 50 mg/kg [21]: 100%; survival at 50 mg/kg [22]: 40%
CCn1cc(-c2nnn[nH]2)c(=O)c2ccc(/C=C/c3nc(C(C)C)cs3)cc21	20	5 µg/mL	1.25			4	
CC(C)c1csc(CCc2ccn3c(=O)c(C(=O)O)cnc3c2)n1	>40	>40 µg/mL					
CC(C)c1csc(/C=C/c2ccn3c(=O)c(-c4nnn[nH]4)cnc3c2)n1	2.5	2.5 µg/mL	1.25	90.8	22	1	No. of survivors [16]: 1; No. of survivors [28]: 1; No. of survivors [29]: 7; No. of survivors [30]: 7; No. of survivors [18]: 10; No. of survivors [31]: 10; No. of survivors [32]: 10; No. of survivors [20]: 1; survival at 50 mg/kg [21]: 70%; survival at 50 mg/kg [22]: 10%
CC(C)c1csc(/C=C/c2ccn3c(=O)c(C(=O)O)cnc3c2)n1	40	80 µg/mL	>320			0.5	
CC(C)c1csc(COc2ccn3c(=O)c(C(=O)O)cnc3c2)n1	80	40 µg/mL	320			2	
CCn1cc(C(=O)O)c(=O)c2ccc(/C=C/c3nc(C(C)C)cs3)cc21	10	10 µg/mL	>160			1	
CC(C)c1csc(CCc2ccn3c(=O)c(-c4nnn[nH]4)cnc3c2)n1	10	10 µg/mL		81.5	327	1	MPC8 [33]: >80 µg/mL
CC(C)c1csc(/C=C/c2cccc(NC(=O)Cc3ccccc3C(=O)O)c2)n1	10	<=0.63 ug ml-1	>60	> 99.9	0.28	> 16	
CC(C)c1csc(COc2cc3c(cc2F)c(=O)c(C(=O)O)cn3C2CC2)n1	10	10 µg/mL	320	90.5		1	
